Key:
[1] = target: GDP-bound NRAS wild-type protein (Homo sapiens, UniProt P01111); experiment: Binding to NRAS by surface plasmon resonance (SPR), Single Cycle Kinetics; conditions: SPR, GDP-bound NRAS wild-type protein vs GDP-bound KRAS wild-type protein
[2] = target: GDP-bound HRAS wild-type protein (Homo sapiens, UniProt P01112); experiment: Binding to HRAS by surface plasmon resonance (SPR), Single Cycle Kinetics; conditions: SPR, GDP-bound HRAS wild-type protein vs GDP-bound KRAS wild-type protein
GDP-bound HRAS wild-type protein, sequence (P01112 whole entry): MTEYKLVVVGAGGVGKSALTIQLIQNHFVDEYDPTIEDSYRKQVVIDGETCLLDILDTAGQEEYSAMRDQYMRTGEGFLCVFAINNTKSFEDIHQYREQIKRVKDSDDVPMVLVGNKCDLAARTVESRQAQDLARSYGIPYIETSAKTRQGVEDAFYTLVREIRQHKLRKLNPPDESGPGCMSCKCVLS

[3] = target: GDP-bound KRAS wild-type protein (Homo sapiens, UniProt P01116); experiment: Binding to KRAS by surface plasmon resonance (SPR), Single Cycle Kinetics; conditions: SPR Single Cycle Kinetics, GDP-bound KRAS wild-type protein, 1:1 binding model; read-out: KRAS KD
GDP-bound KRAS wild-type protein, sequence (P01116 whole entry): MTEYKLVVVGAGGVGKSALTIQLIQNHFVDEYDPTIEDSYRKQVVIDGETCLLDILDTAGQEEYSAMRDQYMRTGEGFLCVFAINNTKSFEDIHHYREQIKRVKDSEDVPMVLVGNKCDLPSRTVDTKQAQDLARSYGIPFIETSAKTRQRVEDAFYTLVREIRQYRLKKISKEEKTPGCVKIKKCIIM

GDP-bound NRAS wild-type protein, sequence (P01111 whole entry): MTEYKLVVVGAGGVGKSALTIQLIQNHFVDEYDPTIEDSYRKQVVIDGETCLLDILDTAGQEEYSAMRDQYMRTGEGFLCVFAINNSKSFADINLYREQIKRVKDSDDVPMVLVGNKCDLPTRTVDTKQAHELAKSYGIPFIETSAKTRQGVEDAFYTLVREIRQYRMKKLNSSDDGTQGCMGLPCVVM

Row | Structure (SMILES) | NRAS/KRAS (ratio of KD value with respect to NRAS to KD value with respect to KRAS) [1] | HRAS/KRAS (ratio of KD value with respect to HRAS to KD value with respect to KRAS) [2] | Kd [3] [nM]
1 | CCO[C@@H]1C[C@H]2C(=O)NC3(CCC3)C(=O)N(C)[C@@H](C3CCCC3)C(=O)N(C)[C@H](C(=O)N(C)C)CC(=O)N(C)[C@@H](CC)C(=O)N[C@@H]([C@@H](C)CC)C(=O)N(C)CC(=O)N(C)[C@H]3CCCCN(C3=O)[C@@H](Cc3ccc(C(F)(F)F)cc3)C(=O)N(C)CC(=O)N[C@@H](CCc3cc(F)c(C(F)(F)F)c(F)c3)C(=O)N2C1 [PP0693] | C (A compound having a KD ratio of 0.1 or more and less than 3 is denoted as C) | C (A compound having a KD ratio of 0.1 or more and less than 3 is denoted as C) | 0.016
2 | CCC[C@H]1C(=O)N[C@@H]([C@@H](C)CC)C(=O)N(C)CC(=O)N(C)[C@H]2CCCCN(C2=O)[C@@H](Cc2ccc(C(F)(F)F)cc2)C(=O)N(C)CC(=O)N[C@@H](CCc2cc(F)c(C(F)(F)F)c(F)c2)C(=O)N2C[C@H](OCC)C[C@H]2C(=O)NC2(CCC2)C(=O)N(C)[C@@H](C2CCCC2)C(=O)N(C)[C@H](C(=O)N(C)C)CC(=O)N1C [PP0694] | C (A compound having a KD ratio of 0.1 or more and less than 3 is denoted as C) | C (A compound having a KD ratio of 0.1 or more and less than 3 is denoted as C) | 0.025
3 | C=CC[C@H]1C(=O)N[C@@H]([C@@H](C)CC)C(=O)N(C)CC(=O)N(C)[C@H]2CCCCN(C2=O)[C@@H](Cc2ccc(C(F)(F)F)cc2)C(=O)N(C)CC(=O)N[C@@H](CCc2cc(F)c(C(F)(F)F)c(F)c2)C(=O)N2C[C@H](OCC)C[C@H]2C(=O)NC2(CCC2)C(=O)N(C)[C@@H](C2CCCC2)C(=O)N(C)[C@H](C(=O)N(C)C)CC(=O)N1C [PP0695] | C (A compound having a KD ratio of 0.1 or more and less than 3 is denoted as C) | C (A compound having a KD ratio of 0.1 or more and less than 3 is denoted as C) | 0.015
4 | C#CC[C@H]1C(=O)N[C@@H]([C@@H](C)CC)C(=O)N(C)CC(=O)N(C)[C@H]2CCCCN(C2=O)[C@@H](Cc2ccc(C(F)(F)F)cc2)C(=O)N(C)CC(=O)N[C@@H](CCc2cc(F)c(C(F)(F)F)c(F)c2)C(=O)N2C[C@H](OCC)C[C@H]2C(=O)NC2(CCC2)C(=O)N(C)[C@@H](C2CCCC2)C(=O)N(C)[C@H](C(=O)N(C)C)CC(=O)N1C [PP0696] | B (a compound having 3 or more and less than 10 is denoted as B) | B (a compound having 3 or more and less than 10 is denoted as B) | 0.012
5 | CCO[C@@H]1C[C@H]2C(=O)NC3(CCC3)C(=O)N(C)[C@@H](C3CCCC3)C(=O)N(C)[C@H](C(=O)N(C)C)CC(=O)N(C)[C@@H](CC3CC3)C(=O)N[C@@H]([C@@H](C)CC)C(=O)N(C)CC(=O)N(C)[C@H]3CCCCN(C3=O)[C@@H](Cc3ccc(C(F)(F)F)cc3)C(=O)N(C)CC(=O)N[C@@H](CCc3cc(F)c(C(F)(F)F)c(F)c3)C(=O)N2C1 [PP0697] | C (A compound having a KD ratio of 0.1 or more and less than 3 is denoted as C) | C (A compound having a KD ratio of 0.1 or more and less than 3 is denoted as C) | 0.021
6 | CCO[C@@H]1C[C@H]2C(=O)NC3(CCC3)C(=O)N(C)[C@@H](C3CCCC3)C(=O)N(C)[C@H](C(=O)N(C)C)CC(=O)N(C)[C@@H](CC3CCC3)C(=O)N[C@@H]([C@@H](C)CC)C(=O)N(C)CC(=O)N(C)[C@H]3CCCCN(C3=O)[C@@H](Cc3ccc(C(F)(F)F)cc3)C(=O)N(C)CC(=O)N[C@@H](CCc3cc(F)c(C(F)(F)F)c(F)c3)C(=O)N2C1 [PP0698] | C (A compound having a KD ratio of 0.1 or more and less than 3 is denoted as C) | C (A compound having a KD ratio of 0.1 or more and less than 3 is denoted as C) | 0.015
7 | CCO[C@@H]1C[C@H]2C(=O)NC3(CCC3)C(=O)N(C)[C@@H](C3CCCC3)C(=O)N(C)[C@H](C(=O)N(C)C)CC(=O)N(C)[C@@H](CC(C)(C)C)C(=O)N[C@@H]([C@@H](C)CC)C(=O)N(C)CC(=O)N(C)[C@H]3CCCCN(C3=O)[C@@H](Cc3ccc(C(F)(F)F)cc3)C(=O)N(C)CC(=O)N[C@@H](CCc3cc(F)c(C(F)(F)F)c(F)c3)C(=O)N2C1 [PP0699] | C (A compound having a KD ratio of 0.1 or more and less than 3 is denoted as C) | C (A compound having a KD ratio of 0.1 or more and less than 3 is denoted as C) | 0.036
8 | CCO[C@@H]1C[C@H]2C(=O)NC3(CCC3)C(=O)N(C)[C@@H](C3CCCC3)C(=O)N(C)[C@H](C(=O)N(C)C)CC(=O)N(C)[C@@H](CC3CCCCC3)C(=O)N[C@@H]([C@@H](C)CC)C(=O)N(C)CC(=O)N(C)[C@H]3CCCCN(C3=O)[C@@H](Cc3ccc(C(F)(F)F)cc3)C(=O)N(C)CC(=O)N[C@@H](CCc3cc(F)c(C(F)(F)F)c(F)c3)C(=O)N2C1 [PP0701] | C (A compound having a KD ratio of 0.1 or more and less than 3 is denoted as C) | B (a compound having 3 or more and less than 10 is denoted as B) | 0.017
9 | CCO[C@@H]1C[C@H]2C(=O)NC3(CCC3)C(=O)N(C)[C@@H](C3CCCC3)C(=O)N(C)[C@H](C(=O)N(C)C)CC(=O)N(C)[C@@H](Cc3cccnc3)C(=O)N[C@@H]([C@@H](C)CC)C(=O)N(C)CC(=O)N(C)[C@H]3CCCCN(C3=O)[C@@H](Cc3ccc(C(F)(F)F)cc3)C(=O)N(C)CC(=O)N[C@@H](CCc3cc(F)c(C(F)(F)F)c(F)c3)C(=O)N2C1 [PP0703] | C (A compound having a KD ratio of 0.1 or more and less than 3 is denoted as C) | B (a compound having 3 or more and less than 10 is denoted as B) | 0.013
10 | CCO[C@@H]1C[C@H]2C(=O)NC3(CCC3)C(=O)N(C)[C@@H](C3CCCC3)C(=O)N(C)[C@H](C(=O)N(C)C)CC(=O)N(C)[C@@H](COC)C(=O)N[C@@H]([C@@H](C)CC)C(=O)N(C)CC(=O)N(C)[C@H]3CCCCN(C3=O)[C@@H](Cc3ccc(C(F)(F)F)cc3)C(=O)N(C)CC(=O)N[C@@H](CCc3cc(F)c(C(F)(F)F)c(F)c3)C(=O)N2C1 [PP0704] | C (A compound having a KD ratio of 0.1 or more and less than 3 is denoted as C) | C (A compound having a KD ratio of 0.1 or more and less than 3 is denoted as C) | 0.011
11 | CCO[C@@H]1C[C@H]2C(=O)NC3(CCC3)C(=O)N(C)[C@@H](C3CCCC3)C(=O)N(C)[C@H](C(=O)N(C)C)CC(=O)N(C)[C@@H](CCOC)C(=O)N[C@@H]([C@@H](C)CC)C(=O)N(C)CC(=O)N(C)[C@H]3CCCCN(C3=O)[C@@H](Cc3ccc(C(F)(F)F)cc3)C(=O)N(C)CC(=O)N[C@@H](CCc3cc(F)c(C(F)(F)F)c(F)c3)C(=O)N2C1 [PP0705] | C (A compound having a KD ratio of 0.1 or more and less than 3 is denoted as C) | C (A compound having a KD ratio of 0.1 or more and less than 3 is denoted as C) | 0.027
12 | CCO[C@@H]1C[C@H]2C(=O)NC3(CCC3)C(=O)N(C)[C@@H](C3CCCC3)C(=O)N(C)[C@H](C(=O)N(C)C)CC(=O)N(C)C[C@@H](C)C(=O)N[C@@H]([C@@H](C)CC)C(=O)N(C)CC(=O)N(C)[C@H]3CCCCN(C3=O)[C@@H](Cc3ccc(C(F)(F)F)cc3)C(=O)N(C)CC(=O)N[C@@H](CCc3cc(F)c(C(F)(F)F)c(F)c3)C(=O)N2C1 [PP0706] | B (a compound having 3 or more and less than 10 is denoted as B) | B (a compound having 3 or more and less than 10 is denoted as B) | 3.6
13 | CCO[C@@H]1C[C@H]2C(=O)NC3(CCC3)C(=O)N(C)[C@@H](C3CCCC3)C(=O)N(C)[C@H](C(=O)N3CCOCC3)CC(=O)N(C)[C@@H](CC)C(=O)N[C@@H]([C@@H](C)CC)C(=O)N(C)CC(=O)N(C)[C@H]3CCCCN(C3=O)[C@@H](Cc3ccc(C(F)(F)F)cc3)C(=O)N(C)CC(=O)N[C@@H](CCc3cc(F)c(C(F)(F)F)c(F)c3)C(=O)N2C1 [PP0708] | B (a compound having 3 or more and less than 10 is denoted as B) | B (a compound having 3 or more and less than 10 is denoted as B) | 0.026
14 | CCC[C@H]1C(=O)N[C@@H]([C@@H](C)CC)C(=O)N(C)CC(=O)N(C)[C@H]2CCCCN(C2=O)[C@@H](Cc2ccc(C(F)(F)F)cc2)C(=O)N(C)CC(=O)N[C@@H](CCc2cc(F)c(C(F)(F)F)c(F)c2)C(=O)N2C[C@H](OCC)C[C@H]2C(=O)NC2(CCC2)C(=O)N(C)[C@@H](C2CCCC2)C(=O)N(C)[C@H](C(=O)N2CCOCC2)CC(=O)N1C [PP0709] | C (A compound having a KD ratio of 0.1 or more and less than 3 is denoted as C) | B (a compound having 3 or more and less than 10 is denoted as B) | 0.03
15 | C=CC[C@H]1C(=O)N[C@@H]([C@@H](C)CC)C(=O)N(C)CC(=O)N(C)[C@H]2CCCCN(C2=O)[C@@H](Cc2ccc(C(F)(F)F)cc2)C(=O)N(C)CC(=O)N[C@@H](CCc2cc(F)c(C(F)(F)F)c(F)c2)C(=O)N2C[C@H](OCC)C[C@H]2C(=O)NC2(CCC2)C(=O)N(C)[C@@H](C2CCCC2)C(=O)N(C)[C@H](C(=O)N2CCOCC2)CC(=O)N1C [PP0710] | C (A compound having a KD ratio of 0.1 or more and less than 3 is denoted as C) | B (a compound having 3 or more and less than 10 is denoted as B) | 0.029
